# From ChEMBL document CHEMBL5244244, “Fight against novel coronavirus: A perspective of medicinal chemists” (Eur J Med Chem, 2020)
# pEC50, pIC50: −log10 of the molar value.
# Legend:
# [1] = Selectivity index, ratio of CC50 for African green monkey Vero E6 cells to EC50 for antiviral activity against SARS-CoV-2 2019BetaCoV/Wuhan/WIV04/2019; format: toxicity, Vero C1008; details: read-out: Selectivity Index
# [2] = Cytotoxicity against African green monkey Vero E6 cells assessed as reduction of cell viability measured after 48 hrs by CCK-8 assay; format: toxicity, cell-based, Vero C1008; details: chlorocebus sabaeus
# [3] = system: SARS-CoV-2; experiment: Antiviral activity against SARS-CoV-2 2019BetaCoV/Wuhan/WIV04/2019 infected in African green monkey Vero E6 cells assessed as inhibition of viral replication measured after 48 hrs; format: functional, organism-based; details: Severe acute respiratory syndrome coronavirus 2, 2019BetaCoV/Wuhan/WIV04/2019, Vero C1008, 48 h
# [4] = biological target: Replicase polyprotein 1ab (Severe acute respiratory syndrome coronavirus 2, UniProt P0DTD1); experiment: Inhibition of SARS-CoV-2 main protease
# [5] = Cytotoxicity against african green monkey Vero cells; format: toxicity, cell-based; details: chlorocebus sabaeus
# [6] = system: SARS-CoV-2; experiment: Antiviral activity against SARS-CoV-2 infected in African green monkey Vero cells assessed as inhibition of viral replication; format: functional, organism-based; details: Severe acute respiratory syndrome coronavirus 2, Vero
# [7] = Selectivity index, ratio of CC50 for African green monkey Vero cells to EC50 for antiviral activity against SARS-CoV-2; format: toxicity; details: read-out: Selectivity Index
compound,measurement,setting,value
NC(=O)c1nc(F)c[nH]c1=O,selectivity ratio,[1],> 6.46
same,CC50 at 48 h,[2],> 400 µM
CCN(CC)CCCC(C)Nc1ccnc2cc(Cl)ccc12 (stereo not drawn) [CHLOROQUINE],CC50 at 48 h,[2],> 100 µM
same,pEC50,[3],5.95
Cc1cccc(C)c1OCC(=O)N[C@@H](Cc1ccccc1)[C@@H](O)C[C@H](Cc1ccccc1)NC(=O)[C@H](C(C)C)N1CCCNC1=O [LOPINAVIR],pIC50,[4],5.04
N=C(N)c1ccc2cc(OC(=O)c3ccc(N=C(N)N)cc3)ccc2c1 [NAFAMOSTAT],CC50,[5],> 100 µM
same,pEC50,[6],4.65
same,selectivity ratio,[7],4.44
O=C(Nc1ccc([N+](=O)[O-])cc1Cl)c1cc(Cl)ccc1O [NICLOSAMIDE],CC50 at 48 h,[2],> 35.5 µM
same,pEC50,[3],5.67
Nc1nc2c(ncn2CCC(CO)CO)c(=O)[nH]1 [PENCICLOVIR],selectivity ratio,[1],> 4.17
same,CC50 at 48 h,[2],> 400 µM
NC(=O)c1ncn([C@@H]2O[C@H](CO)[C@@H](O)[C@H]2O)n1 [RIBAVIRIN],CC50 at 48 h,[2],> 400 µM
